According to publication PMC11239673, “Structural basis for the bi-specificity of USP25 and USP28 inhibitors” (EMBO Reports, 2024):
Where “and” joins values, the source holds several entries; their conditions need not be identical. Equal values may be shown once. Read-outs that look alike come from different tables or passages of the source.

Experiments:
USP28Δtip H261A = molecular target: T1, USP28Δtip H261A (Homo sapiens, UniProt Q96RU2, H261A/INS458SGSG); experiment: Ub-Rho110 dose–response assay, USP28Δtip H261A; assay type: biochemical; settings: for IC50: USP28 - H261A
T1 sequence (Q96RU2 with tags, fused parts or gaps H261A/INS458SGSG): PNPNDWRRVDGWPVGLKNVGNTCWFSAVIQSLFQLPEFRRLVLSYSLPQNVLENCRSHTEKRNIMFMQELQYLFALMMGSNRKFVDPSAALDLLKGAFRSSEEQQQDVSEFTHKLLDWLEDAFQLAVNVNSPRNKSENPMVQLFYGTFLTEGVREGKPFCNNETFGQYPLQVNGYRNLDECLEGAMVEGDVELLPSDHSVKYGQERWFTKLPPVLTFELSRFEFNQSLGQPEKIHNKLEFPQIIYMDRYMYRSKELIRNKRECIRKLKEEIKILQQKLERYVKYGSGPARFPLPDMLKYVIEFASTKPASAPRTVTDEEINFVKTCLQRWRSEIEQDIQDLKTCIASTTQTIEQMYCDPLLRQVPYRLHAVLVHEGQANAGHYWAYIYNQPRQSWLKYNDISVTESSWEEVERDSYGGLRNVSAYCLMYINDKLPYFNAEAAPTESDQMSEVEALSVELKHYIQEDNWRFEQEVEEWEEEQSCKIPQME

USP25Δtip WT = molecular target: T2, USP25Δtip WT (Homo sapiens, UniProt Q9UHP3, A536G/DEL465-477/DEL482-535/P478G/P537S); experiment: Ub-Rho110 dose–response assay, USP25Δtip wt; assay type: biochemical; settings: single replicates
T2 construct: 6xHis or thioredoxin-6xHis (N, cleaved yes); made in house; host or cells: E. coli BL21star (DE3)
T2 sequence (Q9UHP3 with tags, fused parts or gaps DEL465-477/P478G/DEL482-535/A536G/P537S limits assumed): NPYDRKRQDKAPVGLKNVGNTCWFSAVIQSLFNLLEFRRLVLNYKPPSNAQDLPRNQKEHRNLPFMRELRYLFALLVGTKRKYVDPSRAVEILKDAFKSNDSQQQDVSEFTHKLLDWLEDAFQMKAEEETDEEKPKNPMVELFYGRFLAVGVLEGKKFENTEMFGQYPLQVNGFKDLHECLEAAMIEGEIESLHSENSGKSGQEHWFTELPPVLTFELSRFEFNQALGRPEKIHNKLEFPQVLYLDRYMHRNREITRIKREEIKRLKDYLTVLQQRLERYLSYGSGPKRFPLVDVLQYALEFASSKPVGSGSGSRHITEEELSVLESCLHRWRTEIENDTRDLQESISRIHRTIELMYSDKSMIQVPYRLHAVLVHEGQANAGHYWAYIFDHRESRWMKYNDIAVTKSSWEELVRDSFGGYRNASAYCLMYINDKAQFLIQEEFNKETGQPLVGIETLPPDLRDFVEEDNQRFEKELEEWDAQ

[1] = read-out: relative inhibition [%] - USP28 - H261A

Compound: Cc1ccc2c(N)c(C(=O)NC3CCc4cc(N5CC6CCC(C5)N6)ccc4C3)sc2n1 (stereo not shown) [FT206]
- t-test vs. USP28 WT control - H261A (USP28Δtip H261A): 1.437E-02
- IC50 (USP28Δtip H261A; mean of replicates, read-out: IC50, mean and SD): 1.37 µM
- IC50 (USP28Δtip H261A; single replicates, read-out: IC50 of each replicate curve (unlabelled line above mean and SD)): 2.48 µM and 1.42 µM and 1.16 µM and 1.02 µM and 0.771 µM
- inhibition at 11.11 µM (USP28Δtip H261A; [1]): 80.8%
- inhibition at 33.33 µM (USP28Δtip H261A; [1]): 98.5%
- inhibition at 100 µM (USP28Δtip H261A; [1]): 107%
- inhibition at […] (USP28Δtip H261A; [1]): 74.8%
- inhibition at 11.11 µM (USP25Δtip WT; read-out: relative inhibition [%] - USP25 - WT, inhibitor 11.11 µM): 91.9%
- inhibition at 33.33 µM (USP25Δtip WT; read-out: relative inhibition [%] - USP25 - WT, inhibitor 33.33 µM): 99%
- inhibition at 100 µM (USP25Δtip WT; read-out: relative inhibition [%] - USP25 - WT, inhibitor 100.00 µM): 100%
